Results on one compound are retold here after article PMC6304418, “A Novel Compound Targeting Protease Receptor 1 Activators for the Treatment of Glioblastoma” (Frontiers in Neurology, 2018).

Where a SMILES comes first, the peptide text is derived from it. The star is where a group is joined. Tos = Cc1ccc(S(=O)(=O)*)cc1; CH2Cl = ClC*

Assay [1] concerns thrombin mediated PAR1 activation (pERK/ERK) in CNS-1 cells. Description: ERK activation (pERK/ERK, Western blot) in CNS-1 cells. The settings on record: thrombin 1 U/ml + SIXAC 100 nM, 10 min; n = 3; thrombin alone 2.09 ± 0.28, p < 0.03. It is filed as cell-based, rat. The procedure: Cells were seeded (1 × 10^6 cells/75 cm^2 flask) and incubated for 24 h. Then the medium was replaced by FCS-free medium for another 24 h. The cells were treated for 10 min with thrombin (1 U/ml), SIXAC (100 nM), a combination of thrombin and SIXAC or a FCS-free medium which was used as a control (n = 3 for each treatment). The cells were washed and lysed in RIPA buffer (containing in mM: 50 TRIS HCl pH 8, 150 NaCl, 1% NP-40, 0.5% sodium deoxycholate, and 0.1% SDS), a protease inhibitor cocktail (Merck Millipore 539134, 1:100), 0.1 mM sodium orthovanadate and 2 mM PMSF. The cells were scraped, collected and centrifuged (16,000g × 20 min) at 4°C. The supernatants were collected, and protein concentration was determined by means of a bicinchoninic acid (BCA) assay. Each sample (20 μg) was separated by SDS-polyacrylamide gel electrophoresis. The proteins were transferred onto nitrocellulose membranes. Membranes were incubated with mouse anti-phosphorylated Extracellular signal-Regulated Kinase (pERK) antibody (1:10,000, M8159, Sigma), for 1.5 h at room temperature (RT) and washed with Tris-buffered saline and 0.1% Tween 20 (TBST). Membranes were then incubated at RT with horseradish peroxidase-conjugated goat anti-mouse antibody (1:10,000, Jackson Immunoresearch Laboratories). […] Protein bands were detected by a peroxidase-based enhanced chemiluminescence (ECL) method. […]
(In general: A western blot detects proteins with antibodies after separation by electrophoresis.)

Assay [2] concerns CNS-1 tumors in rat brains. As to the kind of experiment: Histopathology of CNS-1 GBM rat brains (H&E, Ki67). It is filed as in vivo. The procedure: Rats were allocated to three groups. 1. Control group (n = 15) treated with alzet-pumps contain saline. 2. Moderate dose treated group (n = 16) treated with alzet-pump containing SIXAC (2μg/kg/day). 3. High dose treated group (n = 14) treated with alzet-pumps contain SIXAC (20μg/kg/day). Survival was registered daily and the brains were dissected immediately after death determination and were placed in 4% PFA and kept at 4°C. Upon MRI scanning the brains were moved to PBS containing tubes, scanning was performed and ROI were quantified.
Formalin-fixed, paraffin-embedded brains were serially sectioned into 4 μm sections and stained with Hematoxylin and Eosin (H&E). Tumor localization and detailed evaluation was conducted by a senior neuropathologist (NS). Mitosis rate was assessed manually by 2 observers who analyzed 10 fields from each examined brain. Serial 4 μm sections were used for immune-histochemical staining using a commercially available monoclonal rabbit anti-Ki67 antibody (clone SP6,# RM-9106-S, Thermo Scientific, 1:300) according to standard procedures and fully automated protocol. A positive control was added on the right side of the slides for immune-histochemistry. The slides were automatically scanned via Aperio Versa 200 System (leica) using X20 and X40 equivalent objectives. Digital images were captured with Leica DM6000B microscope by AperioImageScope software. The Ki67 index was defined as positive stained nuclei (DAB positive)/all stained nuclei. Ten fields from each tested brain were used for analysis of Ki67 index. The indices were automatically calculated by means of ImmunoRatio application (Version 1.0c) ([43]).

Regarding `Cc1ccc(S(=O)(=O)N[C@@H](C)C(=O)N[C@H](C(=O)N[C@@H](CC(C)C)C(=O)N[C@@H](CC(=O)O)C(=O)N2CCC[C@H]2C(=O)N[C@@H](CCCNC(=N)N)C(=O)CCl)[C@@H](C)O)cc1` [SIXAC] (Tos-ATLDPR-CH2Cl), the “pERK/ERK ratio, thrombin with SIXAC” value in assay [1] stood at 0.99 ± 0.21. Further, the “mitosis rate (number of mitosis/field, H&E)” value in assay [2] (SIXAC treated rats, 10 fields per brain, mean ± SEM, control 7.75 ± 1.45, p = 0.03) stood at 4.9 ± 0.2 mitosis/field. Moreover, the Ki67 index in assay [2] (SIXAC treated rats, positive/all stained nuclei, ImmunoRatio, ten fields per brain, mean ± SEM, control 21.55 ± 0.11, p < 0.001) is recorded as 12.74 ± 0.23. Besides, in assay [2] (high dose 20μg/kg/day long survivor, sacrificed at day 40), the “H&E finding in a long survivor rat” value is on record as “large cystic area containing residual tissue with foamy macrophages”.
